{
  "source": "patent US6979553B2",
  "about": "“Use of Nernstein voltage sensitive dyes in measuring transmembrane voltage” (Caliper Life Sciences, Inc., priority 1999, dated 2005)",
  "key": {"[1]": {"test_system": "THP-1 cells", "assay": "Lab-on-a-chip membrane potential assay, uptake of DiBAC4(3) and Syto 62 by THP-1 cells", "format": "cell-based", "from_the_text": "The microfluidic technology used in the LabChip® system for this example utilizes microchannels etched into quartz chips coupled with a sampling micropipette that can access samples from microtitre plates. The LabChip® system accesses liquid samples sequentially from a microplate, mixes the samples with cells flowing through a microchannel and reads out cellular responses using fluorescence detection. The system was applied to the measurement of changes in transmembrane potential. […].\nAs show in FIG. 8, panel A and panel B, the lab-on-a-chip system which was used consisted of quartz chip 801 containing microchannels 803 and 805 connected to Sipper™ capillary 807, robot 809 to move microplate 811, light source 813, optics 815 and fluorescence reader 817, vacuum pump 816, and a computer to control system functions and record data. Light from light source 813 (e.g., mercury arc lamp (470 nm) or an argon ion laser) was focused onto microchip 801 with through optics 815 comprising an objective (10×, 0.3 NA air). Fluorescence was collected with the objective, split into two channels (525 nm and 700 nm) and detected with fluorescence reader 817 which comprises photodiodes. Fluorescence readings were acquired at 20–90 Hz. The three axis robot 809 was used to position microplate 811 so that chip 801 could sample microplate 811, whether in a 96 or 384 well configuration.\nA schematic of chip 801 with 90×20 μm channels is shown in FIG. 8, panel B. Flowing cells from cell well 819 were mixed with samples introduced through the Sipper™ capillary 807 (20 μm ID). The flow rate in the detection channel was varied from 2 to 10 nl/s by varying the vacuum applied to waste well 821. Agonists or dyes were added from side well 823. The incubation time in detection channel 803 was varied between 10 and 75 seconds by varying the applied pressure and the location of detector elements (e.g., optics 815) relative to chip 801.\nAs shown in panel A, the potential sensitive fluorescence signal was derived not from the slow re-equilibration of dyes that were pre-loaded into cells but rather from the rate of uptake of charged, membrane-permeable dyes. Using both an anionic dye, DiBAC4(3), and a cationic dye, Syto 62, yielded a ratiometric measurement with increased sensitivity. Cells were mixed on chip with test samples and dyes stored on the chip. After a short incubation in the detection channel, the fluorescence of individual cells was detected.\nAs shown in panel B, peaks in green (DiBAC) and red (Syto 62) fluorescence corresponded to THP-1 cells mixed with either buffer, UTP or quinidine sulfate flowing past the detector following a 75 second dye incubation.\nAs shown in panels C and D, the rate of uptake of DiBAC4(3) (C) and Syto 62 (D) was determined from the average fluorescence peak height as a function of the incubation time for resting cells (∘), cells hyperpolarized with UTP (▪) and cells depolarized with quinidine sulfate (Δ). Compared to resting cells, the rate of increase of DiBAC4(3) peak heights was 48±11% (mean±se, n=5) higher for depolarized cells and 43±5% lower for hyperpolarized cells. Similarly, the rate of increase of the Syto 62 peaks was 7±2% lower for depolarized cells and 37±3% higher for hyperpolarized cells.\nAs shown in panel A, a calibration curve relating the ratio of DiBAC4(3)/Syto 62 fluorescence (n=20 to 130 cells) to membrane potential was constructed by increasing the K+ conductance of the THP-1 cells and varying the extracellular K+ concentration. […]"}, "[2]": {"test_system": "THP-1 cells", "assay": "Transmembrane potential assay on Caliper 3B5 microfluidic processor, THP-1 cells", "format": "cell-based", "details": "50 μM UTP in high sodium buffer, resting approximately −40 mV", "protocol": "Changes in the cell transmembrane potential were detected in microfluidic processor by the mixing of cells and the dyes DiBAC4(3) and SYTO62. […] Dye uptake by THP-1 cells was measured on a Caliper® 3B5 microfluidic processor (FIG. 5). One of the long channels of the processor contained THP-1 cells (3×10^6 cells/ml) suspended in high sodium buffer as above, while the other long channel contained 400 nM DiBAC4(3) and 10 μM SYTO62 in high sodium buffer. Transmembrane potential was set to resting potential, hyperpolarization or depolarization by placing either high sodium, 50 μM UTP in high sodium or high potassium buffer in the short arm. Resting, hyperpolarized and depolarized potentials are estimated to be approximately −40, −100 and 0 mV respectively. The microfluidic processor was maintained at room temperature (˜23° C.). DiBAC4(3) and SYTO62 fluorescence was read after the cells had traveled approximately 90 seconds from the junction (ΔP˜1″H2O). Panel A depicts the average fluorescence ratio (DiBAC4(3)/SYTO62) for runs of ˜80 cells each. Error bars are standard error values. As shown in panel B, Histograms show the expected voltage dependent changes in the fluorescence intensities of individual cells as a function of transmembrane potential."}, "[3]": {"test_system": "peripheral blood T lymphocytes", "format": "cell-based, human", "details": "for change in DiBAC4(3)/Syto 62 ratio (depolarization): resting T lymphocytes", "from_the_text": "Resting or mitogen activated peripheral blood T lymphocytes (90% CD3+) were flowed through the chip and mixed with ion channel modulators accessed through the Sipper™ capillary. Average DiBAC4(3)/Syto 62 ratios ±SE (n=2–6) are shown.\nThus, cell based assays of calcium flux and membrane potential were run in the lab-on-a-chip system. A novel approach for measurement of membrane potential was used to detect hyperpolarization and depolarization with high sensitivity. The microfluidic format reduced reagent, sample and cell consumption. As few as 50–200 cells and as little as 10 nl of sample were used per test. […]"}},
  "note": "Counter-ions that a name gives are not always drawn. Like-named read-outs stand apart in the source and are kept apart here.",
  "data": [
    {"compound": "O=c1ccn([C@@H]2O[C@H](COP(=O)(O)OP(=O)(O)OP(=O)(O)O)[C@@H](O)[C@H]2O)c(=O)[nH]1", "note": "[UTP]", "values": [
      {"measurement": "rate of increase of DiBAC4(3) peak heights, lower compared to resting cells", "setting": "[1]; hyperpolarized cells", "result": "43±5", "unit": "%"},
      {"measurement": "rate of increase of the Syto 62 peaks, higher compared to resting cells", "setting": "[1]; hyperpolarized cells", "result": "37±3", "unit": "%"},
      {"measurement": "transmembrane potential (hyperpolarized), estimated", "setting": "[2]", "result": "~−100", "unit": "mV"}
    ]},
    {"compound": "Clc1ccccc1C(c1ccccc1)(c1ccccc1)n1ccnc1", "note": "[clotrimazole]", "values": [
      {"measurement": "change in DiBAC4(3)/Syto 62 ratio", "setting": "[3]; mitogen activated T lymphocytes in the presence of ionomycin, 30 μM, p<0.05", "result": "ratio increases significantly"},
      {"measurement": "change in DiBAC4(3)/Syto 62 ratio (depolarization)", "setting": "[3]; 30 μM", "result": "not"}
    ]},
    {"compound": "C[C@H](CCC(=O)O)C[C@H](C)C[C@H](C)C(=O)/C=C(\\O)[C@H](C)C[C@H](C)C/C=C/[C@@H](C)[C@@H](O)[C@@H](C)[C@@H](O)C[C@@H]1CC[C@@](C)([C@H]2CC[C@@](C)([C@@H](C)O)O2)O1", "note": "[ionomycin]", "values": [
      {"measurement": "DiBAC4(3)/Syto 62 ratio (hyperpolarization)", "setting": "[3]; mitogen activated T lymphocytes in the presence of ionomycin, compared to resting T lymphocytes, p<0.05", "result": "lower ratio compared to resting T lymphocytes"},
      {"measurement": "change in DiBAC4(3)/Syto 62 ratio (depolarization)", "setting": "[3]; 15 μM", "result": "not"}
    ]},
    {"compound": "C=C[C@H]1C[N@@]2CC[C@H]1C[C@@H]2[C@@H](O)c1ccnc2ccc(OC)cc12", "note": "[quinidine sulfate]", "values": [
      {"measurement": "change in the average DiBAC4(3)/Syto 62 ratio", "setting": "[1]; average±SD, n=3", "result": "dose dependent depolarization"},
      {"measurement": "rate of increase of the Syto 62 peaks, lower compared to resting cells", "setting": "[1]; depolarized cells", "result": "7±2", "unit": "%"},
      {"measurement": "rate of increase of DiBAC4(3) peak heights, higher compared to resting cells", "setting": "[1]; depolarized cells, mean±se, n=5", "result": "48±11", "unit": "%"}
    ]},
    {"compound": "margatoxin (TIINVKCTSPKQCLPPCKAQFGQSAGAKCMNGKCKCYPH; UniProt P40755 1-39, looked up)", "values": [
      {"measurement": "change in DiBAC4(3)/Syto 62 ratio (depolarization)", "setting": "[3]; 36 μM, p<0.05", "result": "significant increase in DiBAC4(3)/Syto 62 ratio"}
    ]}
  ]
}
